Measurements from patent US10633375B2, “Oxopicolinamide derivative, preparation method therefor and pharmaceutical use thereof” (Jiangsu Hengrui Medicine Co., Ltd., priority 2016, dated 2020).
pIC50: −log10 of the molar value.

Experiments:
[1] = target: Coagulation Factor XIa protease (Homo sapiens (Human), UniProt P03951); assay: Inhibition of Factor XIa detected by absorption photometry; format: biochemical; settings: absorbance at 405 nm, 10 minutes at 37° C.
Outline: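 Read-out was absorbance at 405 nm after 10 min incubation at 37° C. Compound dilutions in 100% DMSO (200 to 0.002 μM) were combined with FXIa (2.5 μg/ml solution), then FXIa-specific chromogenic substrate (2 mM solution) was added; both are stock concentrations, not final.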

human blood = assay: In vitro anticoagulant effect on human blood (APTT, CT2); settings: Table 2; concentration corresponding to 2 times the APTT of the blank control, human plasma
Description: Test Example 2: Determination of In Vitro Anticoagulant Effect of the Compounds of the Present Invention on Human Blood
1. Experimental Materials
Plasma: Human blood was collected in blood collection tubes containing no anticoagulant, and then 3.8% sodium citrate (volume ratio 1:9) was added. The tubes were centrifuged at 2500 rpm for 10 minutes at room temperature, and then the plasma was collected and stored at −80° C.;
Reagents: APTT reagent (Activated partial thromboplastin time assay kit, SIEMENS, Art. No. B4218-1), calcium chloride solution;
Instrument: Coagulation instrument (SYSMEX, CA-500).
The divided plasma was melted at room temperature and mixed well. 10000 μM the test compound dissolved in 100% DMSO was diluted to 3000, 300, 200, 150, 75, 30, 10, 3, 0.3 μM with 100% DMSO, and the blank was 100% DMSO. The reagent, plasma, and compound were placed in corresponding positions in the coagulation instrument, and APTT detection of the compound was carried out.
Curve fitting was carried out by graphpad and CT2 was calculated, i.e., the concentration of the compound corresponding to 2 times the APTT of the blank control.

Sequence of Coagulation Factor XIa protease (P03951 388-625): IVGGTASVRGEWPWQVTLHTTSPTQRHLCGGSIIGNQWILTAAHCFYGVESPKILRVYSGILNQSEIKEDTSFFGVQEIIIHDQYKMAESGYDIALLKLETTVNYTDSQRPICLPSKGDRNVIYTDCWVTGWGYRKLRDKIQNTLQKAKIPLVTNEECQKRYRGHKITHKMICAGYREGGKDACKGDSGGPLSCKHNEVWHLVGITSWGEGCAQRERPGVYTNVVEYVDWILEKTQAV
Sequence of Coagulation Factor XIa protease (P03951 19-387 partner): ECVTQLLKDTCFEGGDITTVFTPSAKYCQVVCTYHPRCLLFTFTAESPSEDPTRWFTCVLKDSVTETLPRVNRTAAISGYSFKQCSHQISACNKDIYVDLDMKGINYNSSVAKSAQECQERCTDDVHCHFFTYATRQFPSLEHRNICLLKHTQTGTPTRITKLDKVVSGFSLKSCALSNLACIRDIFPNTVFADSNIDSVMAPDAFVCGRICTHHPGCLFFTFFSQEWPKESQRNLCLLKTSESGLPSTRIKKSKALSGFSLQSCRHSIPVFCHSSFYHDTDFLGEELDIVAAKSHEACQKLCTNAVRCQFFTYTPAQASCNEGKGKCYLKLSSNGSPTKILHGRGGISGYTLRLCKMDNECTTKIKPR

Row | SMILES | pIC50 [1] | CT2, concentration doubling APTT (human blood) [µM]
1 | COc1cn(C(Cc2ccn(C3CC3)n2)C(=O)Nc2ccc3nccnc3c2)c(=O)cc1-c1cc(Cl)ccc1C(C)=O (centres unmarked) [Example 96, 2-(4-(2-acetyl-5-chlorophenyl)-5-methoxy-2-oxopyridin-1(2H)-yl)-3-(1-cyclopropyl-1H-pyrazol-3-yl)-N-(quinoxalin-6-yl)propanamide] | 7.49 | 6.7
2 | COCC[C@H](C(=O)Nc1ccc2[nH]c(C(=O)O)cc2c1)n1cc(OC)c(-c2cc(Cl)ccc2C(C)=O)cc1=O [Example 3, (R)-5-(2-(4-(2-acetyl-5-chlorophenyl)-5-methoxy-2-oxopyridin-1 (2H)-yl)-4-methoxybutanamido)-1H-indole-2-carboxylic acid] | 5.76 | >10000
3 | COc1cn([C@@H](Cc2ccccc2)C(=O)Nc2ccc3nn(C)cc3c2)c(=O)cc1-c1cc(Cl)ccc1C(C)=O [Example 20, (S)-2-(4-(2-acetyl-5-chlorophenyl)-5-methoxy-2-oxopyridin-1(2H)-yl)-N-(2-methyl-2H-indazol-5-yl)-3-phenylpropanamide] | 7.44 | 6.5
4 | COc1cn([C@@H](Cc2cccc(C#N)c2)C(=O)Nc2ccc(C(=O)O)cc2)c(=O)cc1-c1cc(Cl)ccc1C(C)=O [Example 89, (S)-4-(2-(4-(2-acetyl-5-chlorophenyl)-5-methoxy-2-oxopyridin-1(2H)-yl)-3-(3-cyanophenyl)propanamido)benzoic acid] | 7.38 | 5.7
5 | COc1cn([C@@H](Cc2cnn(C)c2)C(=O)Nc2ccc(C(=O)O)cc2)c(=O)cc1-c1cc(Cl)ccc1C(C)=O [Example 105, (S)-4-(2-(4-(2-acetyl-5-chlorophenyl)-5-methoxy-2-oxopyridin-1(2H)-yl)-3-(1-methyl-1H-pyrazol-4-yl)propanamido)benzoic acid] | 7.52 | 6.9
6 | COc1cn([C@@H](Cc2ccccn2)C(=O)Nc2ccc(C(N)=O)cc2)c(=O)cc1-c1cc(Cl)ccc1C(C)=O [Example 85, (S)-4-(2-(4-(2-acetyl-5-chlorophenyl)-5-methoxy-2-oxopyridin-1(2H)-yl)-3-(pyridin-2-yl)propanamido)benzamide] | 7.04 | 6.5
7 | COc1cn([C@H](CCOC(C)(C)C)C(=O)Nc2ccc(C(=O)O)cc2)c(=O)cc1-c1cc(Cl)ccc1C(C)=O [Example 112, (R)-4-(2-(4-(2-acetyl-5-chlorophenyl)-5-methoxy-2-oxopyridin-1(2H)-yl)-4-(tert-butoxy)butanamido)benzoic acid] | < 5.00 | >10000
8 | COc1cn(C(Cc2ccn(C)n2)C(=O)Nc2ccc(C(=O)O)cc2)c(=O)cc1-c1cc(Cl)ccc1C(C)=O (centres unmarked) [Example 100, 4-(2-(4-(2-acetyl-5-chlorophenyl)-5-methoxy-2-oxopyridin-1(2H)-yl)-3-(1-methyl-1H-pyrazol-3-yl)propanamido)benzoic acid] | 7.46 | 3.3
9 | COCCC(C(=O)Nc1ccc2[nH]c(C(=O)O)cc2c1)n1cc(OC)c(-c2cc(Cl)ccc2C(C)=O)cc1=O (centres unmarked) [Example 1, 5-(2-(4-(2-acetyl-5-chlorophenyl)-5-methoxy-2-oxopyridin-1(2H)-yl)-4-methoxybutanamido)-1H-indole-2-carboxylic acid] | 7.47 | 4.4
10 | COc1cn([C@H](CCOC2CCC2)C(=O)Nc2ccc(C(=O)O)cc2)c(=O)cc1-c1cc(Cl)ccc1C(C)=O [Example 163, (R)-4-(2-(4-(2-acetyl-5-chlorophenyl)-5-methoxy-2-oxopyridin-1 (2H)-yl)-4-cyclobutoxybutanamido)benzoic acid] | 5.04 | >10000
11 | COc1cn(C(Cc2ccn(C3CC3)n2)C(=O)Nc2ccc3nn(C)cc3c2)c(=O)cc1-c1cc(Cl)ccc1C(C)=O (stereo not drawn) [Example 97, 2-(4-(2-acetyl-5-chlorophenyl)-5-methoxy-2-oxopyridin-(2H)-yl)-3-(l-cyclopropyl-1H-pyrazol-3-yl)-N-(2-methyl-2H-indazol-5-yl)propanamide] | 7.44 | 5.4
12 | COc1cn(C(Cc2ccn(C3CC3)n2)C(=O)Nc2ccc(C(=O)O)cc2)c(=O)cc1-c1cc(Cl)ccc1C(C)=O (centres unmarked) [Example 93, 4-(2-(4-(2-acetyl-5-chlorophenyl)-5-methoxy-2-oxopyridin-1(2H)-yl)-3-(1-cyclopropyl-1H-pyrazol-3-yl)propanamido)benzoic acid] | 7.38 | 2.9
13 | COc1cn(C(Cc2ccn(C3CC3)n2)C(=O)Nc2ccc3ncncc3c2)c(=O)cc1-c1cc(Cl)ccc1C(C)=O (centres unmarked) [Example 98, 2-(4-(2-acetyl-5-chlorophenyl)-5-methoxy-2-oxopyridin-1(2H)-yl)-3-(1-cyclopropyl-1H-pyrazol-3-yl)-N-(quinazolin-6-yl)propanamide] | 7.40 | 7.6
14 | COc1cn([C@H](Cc2cnn(C)c2)C(=O)Nc2ccc(C(=O)O)cc2)c(=O)cc1-c1cc(Cl)ccc1C(C)=O [Example 104, (R)-4-(2-(4-(2-acetyl-5-chlorophenyl)-5-methoxy-2-oxopyridin-1 (2H)-yl)-3-(1-methyl-1H-pyrazol-4-yl)propanamido)benzoic acid] | 5.09 | >10000
15 | COCC[C@@H](C(=O)Nc1ccc2[nH]c(C(=O)O)cc2c1)n1cc(OC)c(-c2cc(Cl)ccc2C(C)=O)cc1=O [Example 2, (S)-5-(2-(4-(2-acetyl-5-chlorophenyl)-5-methoxy-2-oxopyridin-1(2H)-yl)-4-methoxybutanamido)-1H-indole-2-carboxylic acid] | 7.72 | 2.9
16 | [2H]c1c([2H])c([2H])c(C([2H])([2H])[C@@H](C(=O)Nc2ccc(C(=O)O)cc2)n2cc(OC)c(-c3cc(Cl)ccc3C(C)=O)cc2=O)c([2H])c1[2H] [Example 181, 4-[[(2S)-2-[4-(2-acetyl-5-chloro-phenyl)-5-methoxy-2-oxo-1-pyridyl]-3,3-dideutero-3-(2,3,4,5,6-pentadeuterophenyl)propionyl]amino]benzoic acid] | – | 2.3
17 | COc1cn([C@@H](Cc2ccn(C3CC3)n2)C(=O)Nc2ccc(C(=O)O)cc2)c(=O)cc1-c1cc(Cl)ccc1C(C)=O [Example 94, (S)-4-(2-(4-(2-acetyl-5-chlorophenyl)-5-methoxy-2-oxopyridin-1(2H)-yl)-3-(1-cyclopropyl-1H-pyrazol-3-yl)propanamido)benzoic acid] | 7.62 | 2.2
18 | [2H]C([2H])([2H])Oc1cn([C@@H](CCOC(C)(C)C)C(=O)Nc2ccc(C(=O)O)cc2)c(=O)cc1-c1cc(Cl)ccc1C(=O)CC [Example 177, 4-[[(2S)-4-tert-butoxy-2-[4-(5-chloro-2-propionyl-phenyl)-2-oxo-5-(trideuteromethoxy)-1-pyridyl]butyryl]amino]benzoic acid] | – | 1.5
19 | CCC(=O)c1ccc(Cl)cc1-c1cc(=O)n(C(Cc2ccccc2)C(=O)Nc2ccc(C(=O)O)cc2)cc1OC (centres unmarked) [Example 8, 4-(2-(4-(5-chloro-2-propionylphenyl)-5-methoxy-2-oxopyridin-1(2H)-yl)-3-phenylpropanamido)benzoic acid] | 7.77 | 6.4
20 | CCC(=O)c1ccc(Cl)cc1-c1cc(=O)n(C(CC2CCCCO2)C(=O)Nc2ccc(C(=O)O)cc2)cc1OC (centres unmarked) [Example 166] | 7.38 | 7.2
21 | COc1cn([C@@H](CCOC2CCC2)C(=O)Nc2ccc(C(=O)O)cc2)c(=O)cc1-c1cc(Cl)ccc1C(C)=O [Example 164, (S)-4-(2-(4-(2-acetyl-5-chlorophenyl)-5-methoxy-2-oxopyridin-1(2H)-yl)-4-cyclobutoxybutanamido)benzoic acid] | 7.52 | 6.4
22 | COc1cn(C(Cc2ccccc2)C(=O)Nc2ccc(C(=O)O)cc2)c(=O)cc1-c1cc(Cl)ccc1C(=O)CC1CC1 (centres unmarked) [Example 39, 4-(2-(4-(5-chloro-2-(2-cyclopropylacetyl)phenyl)-5-methoxy-2-oxopyridin-1(2H)-yl)-3-phenylpropanamido)benzoic acid] | 7.42 | 8.3
23 | [2H]C([2H])([2H])Oc1cn([C@H](Cc2ccccc2)C(=O)Nc2ccc(C(=O)O)cc2)c(=O)cc1-c1cc(Cl)ccc1C(C)=O [Example 180, 4-[[(2R)-2-[4-(2-acetyl-5-chloro-phenyl)-2-oxo-5-(trideuteromethoxy)-1-pyridyl]-3-phenyl-propionyl]amino]benzoic acid] | – | >10000
24 | CCC(=O)c1ccc(Cl)cc1-c1cc(=O)n([C@H](CCOC(C)(C)C)C(=O)Nc2ccc(C(=O)O)cc2)cc1OC [Example 109, (R)-4-(4-(tert-butoxy)-2-(4-(5-chloro-2-propionylphenyl)-5-methoxy-2-oxopyridin-1(2H)-yl)butanamido)benzoic acid] | – | >10000
